Laboratory results as given in patent US4599325A, “Substituted tyrosyl alanine dipeptide amides” (G. D. Searle & Co., priority 1985, dated 1986).
pIC50: −log10 of the molar value. Counter-ions that a name gives are not always drawn. Like-named read-outs stand apart in the source and are kept apart here.

Tests used:
[1] = molecular target: opiate receptors; assay: Opiate binding assay (displacement of 3H-Naloxone); set-up: species or system rat; details: for pIC50: Table 1, 3H-Naloxone, rat brain membranes
Description: The test compounds were evaluated for their ability to displace the binding of ^3 H-Naloxone to opiate receptors isolate from rat brain. Male rats [COBS CD(SD)BR] obtained from Charles River Laboratories (Portage, MI) were sacrificed by cervical dislocation. A purified homogenate of receptor membranes was prepared from the brains according to the method described by Chang and Cuatrecasas. (K.-J. Chang and P. Cuatrecases. Multiple Opiate Receptors: Enkephalins And Morphine Bind To Receptors Of Different Specificity. J. Biol. Chem. 254, 2610-2618 (1979).) The brains were homogenized in 10 volumes of 0.32M sucrose and centrifuged twice at 6,000×g for 15 minutes. Following centrifugation of the supernatants at 40,000×g for 30 minutes, the pellets were allowed to swell, then centrifuged at 6,000 and 40,000×g. This process was repeated. The final pellet was resuspended in 2 volumes of 50 mM tris HCl (pH 7.4). The homogenate was assayed for protein content according to the method of Itzhaki and Gill. R. F. Itzhaki and D. M. Gill. A Micro-Biuret Method for Estimating Proteins. Anal. Biochem. 9, […] (1964).
The binding of the test compounds to the receptor membrane preparation was measured using a modification of the method of Pert and Snyder. C. B. Pert and S. H. Snyder. Properties of Opiate-Receptor Binding in Rat Brain. Proc. Natl. Acad. Sci. 70, 2243-2247 (1973). The receptor assay was run using 1 nM ^3 H-Naloxone and 2 ml of tissue homogenate (0.5 mg/ml protein concentration). Levorphanol (1×10^-5 M) was used as the displacer for non-specific binding. Both the displacer and the test compounds were added in 0.02 ml volumes. The assay was run in 0.05M tris HCl (pH 7.4) ±100 mM NaCl. Total assay volume was 2.03 ml.
Samples were incubated at 25° C. for 60 min., cooled on ice 5 min. and subsequently filtered over Whatman GF/C glass fiber filters with 2.4 ml washes of cold buffer. The filters were then solubilized in 1 ml of NCS at 50° C. for 1 hour. After solubilization, the pH was adjusted with 0.1 ml of glacial acetic acid, 10 ml of PCS was added and the samples were counted in a Nuclear Chicago Mark II liquid scintillation counter. This method was used for the following test compounds: Example 4, Example 5, Example 27, Example 28, Example 38, Example 39, and the prior art compound (4).
A modification of this method was used for the following test compounds: Example 16, Example 17, Example 21, Example 22, Example 24, Example 30, Example 31. In this modification, the total assay volume was adjusted to 1.0 ml. Samples were cooled on ice for 10 minutes and dried at 50° C. for 30 minutes, then 10 mls of PCS was added and the samples counted in a liquid scinitillation counter.
The IC50 values, the concentration of the test compounds which inhibited ^3 H-Naloxone specific binding to the opiate receptor by 50%, were obtained from log-probit plots of concentration-response curves. D. J. Finney. Probit Analysis. Cambridge University Press, London, 1947.

[2] = tested on: mice; assay: Hot plate test (intravenous administration); format: in vivo, mouse; details: 10 mg/kg i.v.
Description: Male albino inbred mice supplied by Charles River [CD-1 (ICR)BR] weighing between 20 and 30 grams were used. The mice were placed on a 55° C. hot plate 60, 40, and 20 minutes prior to drug administration and the latencies to the lick of a paw or to a jump were recorded. Mice not responding within 15 seconds were discarded from the study. The test compound or vehicle was then administered intravenously and the animals' response latencies on the hot plate were recorded again 10, 30 and 60 minutes later. The initial test dose was 10 mg/kg. Mice not responding within 30 seconds were removed from the hot plate to prevent tissue damage and assigned the cut-off value of 30 seconds. Elevation of the response latencies to greater than twice the median of the three pre-drug latency measurements was indicative of analgesia. For each time point, the data were expressed as the number of animals having analgesic response latencies out of the total number tested. The number of analgesic animals in the test compound-treated group was then compared with the number of analgesic animals in the vehicle-treated group at each time point using Fisher's Exact Probability Test. S. Siegel, Nonparametric Statistics for the Behavioral Sciences. McGraw-Hill, New York, pp. 96-104 (1956 ). […]

[3] = tested on: mice; assay: Combined tail flick and hot plate tests: tail flick; format: in vivo, mouse; details: for ED50: Mus musculus, combined tail flick/hot plate; for activity in tail flick test: oral and subcutaneous, prior art at doses as great as 100 mg/kg p.o. and 50 mg/kg s.c.
Description: Male albino inbred mice supplied by Charles River (CD-1/HAM/1LR) weighing between 20 and 30 grams were used. Analgesia was first measured using the tail flick test in which a high intensity beam of light was focused on the blackened tail. The interval of time between onset of the light and reflex removal of the tail was defined as the tail flick latency. The average of two successive determinations was recorded. Following tail flick determination, the animals were immediately placed on a 55° C. copper hot plate to which they were restricted by an inverted 600 ml glass beaker. Hot plate latency was defined as the interval between placement on the hot plate and a behavioral response of either a jump or a hindpaw lick. One determination was recorded. Mice not responding within 4.0 seconds on the tail flick and 20.0 seconds on the hot plate were discarded from the study. The tail flick test and the hot plate test were stopped after 12.0 and 40 seconds, respectively, had elapsed to prevent tissue damage. After determination of pre-injection baseline latencies, the test compound was dissolved in distilled water and administered either orally or subcutaneously (0.1 ml/10 gram body weight). Tail flick and hot plate latencies were measured 10, 30, 60 and 90 minutes after injection. One-way analyses of variance were used to detect any significant increase in tail flick and hot plate latencies (indicative of analgesia) as compared to latencies prior to drug adminstration, as well as to establish the dose-dependence of any effect. A linear regression method (least squares) was used to determine the line of best fit. The ED50 dose was determined to be that dose of test compound that produced one-half the maximum measurable increase in latency. This corresponded to a post-drug tail flick latency of 7.5 seconds and hot plate latency of 25 seconds. G. Keppel: Design and analysis: a researcher's handbook, New Jersey, Prentice-Hall, 1973.

Molecule | pIC50 ([1]; hydrochloride) | affinity to the opiate receptor relative to the prior art compound ([1]; greater affinity than prior art compound) | Hot Plate (I.V.) 10 mg/kg: rating and animals with analgesic latencies / tested [2] | ED50 ([3]; po, p.o., read-out: Tail Flick (ED50) p.o.) | ED50 ([3]; sc, s.c., read-out: Tail Flick (ED50) s.c.) | activity in tail flick test [3] | pIC50 [1] | Tail Flick, activity at stated dose s.c. ([3]; 50 mg/kg s.c.) | Tail Flick, activity at stated dose p.o. ([3]; 100 mg/kg p.o.)
Cc1cc(O)cc(C)c1C[C@H](N)C(=O)N[C@H](C)C(=O)NCCCc1ccccc1 [Example 5, 2,6-dimethyltyrosyl-N-(3-phenylpropyl)-D-alaninamide, hydrochloride] | 7.57 | tenfold | Active 6/7 | 115 mg/kg | 35 mg/kg | active | – | – | –
tyrosine-D-alanine-phenylpropylamide [Prior Art, reference compound] | – | – | Inactive 0/10 | – | – | not active | 6.37 | Inactive | Inactive
